Experimental data as given in publication PMC11784026, “Phase 1 study of the safety, tolerability, and pharmacokinetics of a synthetic macrocyclic peptide antibiotic (BRII-693) in healthy adult participants” (Antimicrobial Agents and Chemotherapy, 2024).
Like-named read-outs stand apart in the source and are kept apart here. Where a SMILES comes first, the peptide text is derived from it. Bridges are numbered along the chain shown (N, C = ends). [ ]: non-standard residue; d: D form. The star is where a group is joined. X1 = O=C(c1ccc(Cl)cc1Cl)*; Dab = NCC[C@H](N)C(=O)O; Abu = CC[C@H](N)C(=O)O; Dap = NC[C@H](N)C(=O)O

Assay: Plasma pharmacokinetics after multiple ascending doses (MAD), phase 1
Assay type: in vivo, human (healthy adult participants)
Details: for Vd: read-out: VZ
Method: Participants were discharged on day 11.
Plasma and urine PK parameters were summarized for each cohort using descriptive statistics. Analyses using linear models were performed to assess dose proportionality (both single-dose cohorts 1–7 and multiple-dose cohorts 8–10). Dose-linearity of Cmax and AUC across the dose range was assessed by fitting the power model with ln-transformed parameter as response variables and ln-transformed dose (continuous variable) as a fixed effect. For each PK parameter and study phase (SAD or MAD) separately, a pooled estimate (across all dose cohorts) of slope, corresponding 95% confidence interval (CI), and between-subject coefficient of variation (CV) were calculated. Dose proportionality was to be concluded if the 95% CI for the slope spans 1. […] Least square means (LSMs) and difference in LSMs with 90% CI were calculated; these values were then back exponentiated to give the geometric LSM, geometric mean ratio, and 90% CI.

[1] = human, plasma, iv, 100 mg, First q6h dose (day 3), 7-day MAD 100 mg q6h × 7, n = 3, arithmetic mean ± SD
[2] = human, plasma, iv, 100 mg, Last q6h dose (day 9), 7-day MAD 100 mg q6h × 7, n = 6, arithmetic mean ± SD
[3] = human, plasma, iv, 150 mg, First q6h dose (day 1), 14-day MAD 150 mg q6h × 14, Chinese, n = 10, arithmetic mean ± SD
[4] = human, plasma, iv, 150 mg, First q6h dose (day 1), 14-day MAD 150 mg q6h × 14, non-Chinese, n = 10, arithmetic mean ± SD
[5] = human, plasma, iv, 150 mg, First q6h dose (day 3), 7-day MAD 150 mg q6h × 7, n = 5, arithmetic mean ± SD
[6] = human, plasma, iv, 150 mg, Last q6h dose (day 9), 7-day MAD 150 mg q6h × 7, n = 5, arithmetic mean ± SD
[7] = human, plasma, iv, 150 mg, Last q6h dose (day 14), 14-day MAD 150 mg q6h × 14, Chinese, n = 6, arithmetic mean ± SD
[8] = human, plasma, iv, 150 mg, Last q6h dose (day 14), 14-day MAD 150 mg q6h × 14, non-Chinese, n = 10, arithmetic mean ± SD
[9] = human, plasma, iv, 200 mg, First q6h dose (day 3), 7-day MAD 200 mg q6h × 7, n = 4, arithmetic mean ± SD
[10] = human, plasma, iv, 200 mg, Last q6h dose (day 9), 7-day MAD 200 mg q6h × 7, n = 5, arithmetic mean ± SD

CC[C@@H]1NC(=O)[C@@H](CC(C)C)NC(=O)[C@H](CCN)NC(=O)[C@@H](NC(=O)[C@H](CN)NC(=O)[C@@H](NC(=O)[C@H](CCN)NC(=O)c2ccc(Cl)cc2Cl)[C@@H](C)O)CCNC(=O)[C@H]([C@@H](C)O)NC(=O)[C@H](CCN)NC(=O)[C@H](CCN)NC1=O [BRII-693] (X1-[Dab]T[Dap][Dab][Dab][dL][Abu][Dab][Dab]T; lactam 4-C; N-terminus assumed)
Tmax (First q6h dose (day 3), 7-day MAD 150 mg q6h × 7, n = 5, median (range)): 1.07 (1.02, 1.15) h
ARAUC (accumulation ratio based on AUC) (Last q6h dose (day 9), 7-day MAD 100 mg q6h × 7, n = 6, arithmetic mean ± SD): 1.59 ± 0.14
ARAUC (accumulation ratio based on AUC) (Last q6h dose (day 9), 7-day MAD 150 mg q6h × 7, n = 5, arithmetic mean ± SD): 1.48 ± 0.10
ARAUC (accumulation ratio based on AUC) (Last q6h dose (day 9), 7-day MAD 200 mg q6h × 7, n = 5, arithmetic mean ± SD): 1.69 ± 0.34
ARAUC (accumulation ratio based on AUC) (Last q6h dose (day 14), 14-day MAD 150 mg q6h × 14, Chinese, n = 6, arithmetic mean ± SD): 1.58 ± 0.19
Tmax (Last q6h dose (day 14), 14-day MAD 150 mg q6h × 14, Chinese, n = 6, median (range)): 1.07 (1.05, 1.22) h
ARAUC (accumulation ratio based on AUC) (Last q6h dose (day 14), 14-day MAD 150 mg q6h × 14, non-Chinese, n = 10, arithmetic mean ± SD): 1.58 ± 0.17
Tmax (Last q6h dose (day 14), 14-day MAD 150 mg q6h × 14, non-Chinese, n = 10, median (range)): 1.07 (1.02, 1.10) h
Geometric mean ratio for AUC0-6h, Chinese vs non-Chinese (after the first dose on day 1, 150 mg q6h × 14, 90% CI: 0.966, 1.20): 1.08
Geometric mean ratio for Cmax, Chinese vs non-Chinese (after the first dose on day 1, 150 mg q6h × 14, 90% CI: 0.970, 1.24): 1.10
Geometric mean ratio for AUC0-6h, Chinese vs non-Chinese (after the last dose on Day 14, 150 mg q6h × 14, 90% CI 0.926, 1.25): 1.08
Geometric mean ratio for Cmax, Chinese vs non-Chinese (after the last dose on Day 14, 150 mg q6h × 14, 90% CI 0.935, 1.20): 1.06
Cmax (human, plasma, iv, 100 mg, First q6h dose (day 3), 7-day MAD 100 mg q6h × 7, 1-h IV infusion, plasma, n = 6, arithmetic mean ± SD): 5960 ± 710 ng/mL
clearance [1]: 80.5 mL/min
Vd [1]: 17.1 ± 2.72 L
half-life (human, plasma, iv, 100 mg, First q6h dose (day 3), 7-day MAD 100 mg q6h × 7, n = 6, arithmetic mean ± SD): 2.88 ± 0.5 h
AUC(0-t) (human, plasma, iv, 100 mg, First q6h dose (day 3), 7-day MAD 100 mg q6h × 7, n = 6, arithmetic mean ± SD, read-out: AUC0-6h): 18000 ± 2380 ng·h/mL
clearance [2]: 59.5 mL/min
half-life [2]: 7.58 ± 1.72 h
AUC(0-t) (human, plasma, iv, 100 mg, Last q6h dose (day 9), 7-day MAD 100 mg q6h × 7, n = 6, arithmetic mean ± SD, read-out: AUC0–6h): 28600 ± 4480 ng·h/mL
Vd [2]: 38.4 ± 8.18 L
Tmax (human, plasma, iv, 100 mg, Last q6h dose (day 9), 7-day MAD 100 mg q6h × 7, n = 6, median (range), read-out: Tmax): 1.18 h
Cmax (human, plasma, iv, 100 mg, Last q6h dose (day 9), 7-day MAD 100 mg q6h × 7, plasma, n = 6, arithmetic mean ± SD): 8120 ± 1000 ng/mL
clearance [3]: 77.7 mL/min
half-life [3]: 2.15 ± 0.28 h
AUC(0-t) (human, plasma, iv, 150 mg, First q6h dose (day 1), 14-day MAD 150 mg q6h × 14, Chinese, n = 10, arithmetic mean ± SD, read-out: AUC0-6h): 27300 ± 4140 ng·h/mL
Vd [3]: 14.4 ± 2.93 L
Cmax (human, plasma, iv, 150 mg, First q6h dose (day 1), 14-day MAD 150 mg q6h × 14, Chinese, plasma, n = 10, arithmetic mean ± SD): 10200 ± 1890 ng/mL
clearance [4]: 80 mL/min
half-life [4]: 2.42 ± 0.29 h
AUC(0-t) (human, plasma, iv, 150 mg, First q6h dose (day 1), 14-day MAD 150 mg q6h × 14, non-Chinese, n = 10, arithmetic mean ± SD, read-out: AUC0-6h): 25200 ± 2860 ng·h/mL
Vd [4]: 16.7 ± 2.57 L
Cmax (human, plasma, iv, 150 mg, First q6h dose (day 1), 14-day MAD 150 mg q6h × 14, non-Chinese, plasma, n = 10, arithmetic mean ± SD): 9200 ± 1050 ng/mL
Cmax (human, plasma, iv, 150 mg, First q6h dose (day 3), 7-day MAD 150 mg q6h × 7, 1-h IV infusion, plasma, n = 5, arithmetic mean ± SD): 8690 ± 1240 ng/mL
clearance [5]: 82.3 mL/min
AUC(0-t) (human, plasma, iv, 150 mg, First q6h dose (day 3), 7-day MAD 150 mg q6h × 7, n = 5, arithmetic mean ± SD, read-out: AUC0-6h): 24800 ± 3450 ng·h/mL
Vd [5]: 17.2 ± 3.33 L
clearance [6]: 69.2 mL/min
half-life [6]: 6.76 ± 0.35 h
AUC(0-t) (human, plasma, iv, 150 mg, Last q6h dose (day 9), 7-day MAD 150 mg q6h × 7, n = 5, arithmetic mean ± SD, read-out: AUC0–6h): 36600 ± 4360 ng·h/mL
Vd [6]: 40.9 ± 9.47 L
Tmax (human, plasma, iv, 150 mg, Last q6h dose (day 9), 7-day MAD 150 mg q6h × 7, n = 5, median (range), read-out: Tmax): 1.07 h
Cmax (human, plasma, iv, 150 mg, Last q6h dose (day 9), 7-day MAD 150 mg q6h × 7, plasma, n = 5, arithmetic mean ± SD): 11700 ± 1540 ng/mL
clearance [7]: 59.5 mL/min
half-life [7]: 12.4 ± 6.92 h
AUC(0-t) (human, plasma, iv, 150 mg, Last q6h dose (day 14), 14-day MAD 150 mg q6h × 14, Chinese, n = 6, arithmetic mean ± SD, read-out: AUC0–6h): 42500 ± 4960 ng·h/mL
Vd [7]: 61.9 ± 30.2 L
Cmax (human, plasma, iv, 150 mg, Last q6h dose (day 14), 14-day MAD 150 mg q6h × 14, Chinese, plasma, n = 6, arithmetic mean ± SD): 13300 ± 1500 ng/mL
clearance [8]: 64.7 mL/min
half-life [8]: 15.6 ± 11.7 h
AUC(0-t) (human, plasma, iv, 150 mg, Last q6h dose (day 14), 14-day MAD 150 mg q6h × 14, non-Chinese, n = 10, arithmetic mean ± SD, read-out: AUC0–6h): 39900 ± 7150 ng·h/mL
Vd [8]: 81.4 ± 55.6 L
Cmax (human, plasma, iv, 150 mg, Last q6h dose (day 14), 14-day MAD 150 mg q6h × 14, non-Chinese, plasma, n = 10, arithmetic mean ± SD): 12700 ± 1780 ng/mL
Cmax (human, plasma, iv, 200 mg, First q6h dose (day 3), 7-day MAD 200 mg q6h × 7, 1-h IV infusion, plasma, n = 5, arithmetic mean ± SD): 13500 ± 4430 ng/mL
clearance [9]: 76.3 mL/min
Vd [9]: 15.7 ± 5.81 L
half-life (human, plasma, iv, 200 mg, First q6h dose (day 3), 7-day MAD 200 mg q6h × 7, n = 5, arithmetic mean ± SD): 2.49 ± 0.51 h
AUC(0-t) (human, plasma, iv, 200 mg, First q6h dose (day 3), 7-day MAD 200 mg q6h × 7, n = 5, arithmetic mean ± SD, read-out: AUC0-6h): 36800 ± 10100 ng·h/mL
Tmax (human, plasma, iv, 200 mg, First q6h dose (day 3), 7-day MAD 200 mg q6h × 7, n = 5, median (range), read-out: Tmax): 1.08 h
clearance [10]: 57.8 mL/min
half-life [10]: 7.58 ± 0.93 h
AUC(0-t) (human, plasma, iv, 200 mg, Last q6h dose (day 9), 7-day MAD 200 mg q6h × 7, n = 5, arithmetic mean ± SD, read-out: AUC0–6h): 61300 ± 15700 ng·h/mL
Vd [10]: 37.3 ± 8.4 L
Tmax (human, plasma, iv, 200 mg, Last q6h dose (day 9), 7-day MAD 200 mg q6h × 7, n = 5, median (range), read-out: Tmax): 1.1 h
Cmax (human, plasma, iv, 200 mg, Last q6h dose (day 9), 7-day MAD 200 mg q6h × 7, plasma, n = 5, arithmetic mean ± SD): 18300 ± 4150 ng/mL
